{"source": "patent US12551463B2", "about": "“Dosing of a Bruton's tyrosine kinase inhibitor” (Loxo Oncology, Inc., priority 2019, dated 2026)", "system": "CLL/SLL", "assay": "Phase 1/2 clinical study, CLL/SLL patients", "type": "in vivo, human", "text": "The study is an open-label, multi-center study of oral BTK-I to evaluate safety and efficacy as monotherapy and as part of combination therapy in patients with CLL/SLL and NHL who have failed or are intolerant to standard of care. This study includes monotherapy as well as combination treatment parts. The monotherapy part includes Phase 1 dose escalation and dose expansion as well as Phase 2. The combination therapy part is a Phase 1b (safety assessment and expansion) of BTK-I in combination with venetoclax, with or without anti-CD20 therapy. Phase 1 dose escalation will proceed prior to start of Phase 1b or Phase 2. Once a recommended Phase 2 dose (RP2D) is identified in Phase 1, enrollment can commence to the Phase 1b combination therapies and Phase 2 monotherapy cohorts.\nThe primary objectives of the Phase 1 Dose Escalation and Expansion part of the study is to determine the maximum tolerated dose (MTD)/RP2D of oral BTK-I in patients with previously treated CLL/SLL and B-cell NHL.\nPatients are enrolled with histologically confirmed CLL/SLL or B-cell NHL who have failed or are intolerant to at least two prior standard of care regimens given in combination or sequentially or have received at least one prior BTK inhibitor-containing regimen when BTK inhibitor is approved in first line.\nBTK-I is administered in oral tablet form. Dose escalation will follow a 3+3 design starting with a 25 mg QD dose (followed by 50 mg QD (dose level cohort 2), 100 mg QD (dose level cohort 3), 150 mg QD (dose level cohort 4), 200 mg QD (dose level cohort 5), 250 mg QD (dose level cohort 6), and 300 mg QD (dose level cohort 7)). Cycle length will be 28 days. The drug limiting toxicity (DLT) period will be 28 days, commencing with the first dose of BTK-I.\nThe primary objective of the Phase 2 is to assess the primary anti-tumor activity of BTK-I based on overall response rate (ORR) and as assessed by the Independent Review Committee.\nAt the RP2D up to ˜600 patients with CLL/SLL or NHL will be enrolled to one of the following cohorts: • Cohort 1: Non-blastoid MCL patients treated with a prior BTK-inhibitor. • Cohort 2: CLL/SLL patients treated with 2 or more prior regimens, including a BTK inhibitor-containing regimen. • Cohort 3: CLL/SLL patients with no prior therapy. • Cohort 4: CLL/SLL patients treated with prior therapy, BTK inhibitor naive. • Cohort 5: WM patients treated with a prior BTK inhibitor containing regimen. • Cohort 6: MZL patients treated with a prior BTK inhibitor containing regimen. • Cohort 7: (Not otherwise specified) defined as CLL/SLL or NHL not otherwise specified in Cohorts 1 through 6, inclusive of CLL/SLL or NHL, Richter's transformation, blastoid MCL, and patients with history of CNS involvement or primary CNS lymphoma.\nDosing during Phase 2 will be at the RP2D of 200 mg QD. The cycle length will be 28 days. BTK-I will be administered to the Phase 2 patients in oral tablet form at the RP2D. The dose (and schedule) chosen for Phase 2 may be changed by the SRC based on emerging data (e.g., PK, safety, and/or efficacy) as long as the new dose is not greater than the highest dose that has a DLT <33% and is determined to be safe by the SRC in Phase 1. If the RP2D is changed based on emerging data, patients enrolled to Phase 2 at a different dose may have the dose changed to the new dose."}
{"molecule": "COc1ccc(F)cc1C(=O)NCc1ccc(-c2nn([C@@H](C)C(F)(F)F)c(N)c2C(N)=O)cc1", "note": "[BTK-I, (S)-5-amino-3-(4-((5-fluoro-2-methoxybenzamido)methyl)phenyl)-1-(1,1,1-trifluoropropane-2-yl)-1H-pyrazole-4-carboxamide]", "values": [{"measurement": "ORR", "setting": "28 patients with 17p deletion, TP53 mutation, or both", "value": 79, "unit": "%"}, {"measurement": "ORR", "setting": "121 BTK-pretreated patients, CI: 53-71%", "value": 62, "unit": "%"}, {"measurement": "ORR", "setting": "139 efficacy-evaluable CLL/SLL patients, all dose levels, 95% CI: 55-71", "value": 63, "unit": "%"}, {"measurement": "patients remaining on BTK-I", "setting": "all CLL/SLL patients", "value": 88, "unit": "%"}, {"measurement": "ORR", "setting": "at ≥10 months (25/29)", "value": 86, "unit": "%"}, {"measurement": "ORR", "setting": "discontinued covalent BTK inhibitor for progression [53/79]", "value": 67, "unit": "%"}, {"measurement": "ORR", "setting": "discontinued covalent BTK inhibitor for toxicity or another reason [22/42]", "value": 52, "unit": "%"}, {"measurement": "ORR", "setting": "followed for at least 8 months (35/49)", "value": 71, "unit": "%"}, {"measurement": "BTK C481 mutant allele fraction from peripheral blood mononuclear cells", "setting": "majority of responding patients", "value": "decreased over time"}, {"measurement": "responding patients no longer on therapy", "setting": "of 88 responders (4 progressed, 1 electively discontinued)", "value": 5}, {"measurement": "non-evaluable (NE), patients", "setting": "of 139, discontinued prior to first response assessment", "value": 5}, {"measurement": "PR-L, patients", "setting": "of 139 efficacy-evaluable", "value": 19}, {"measurement": "partial response (PR), patients", "setting": "of 139 efficacy-evaluable", "value": 69}, {"measurement": "progressive disease (PD), patients", "setting": "of 139 efficacy-evaluable", "value": 1}, {"measurement": "stable disease (SD), patients", "setting": "of 139 efficacy-evaluable", "value": 45}, {"measurement": "ORR", "setting": "progression on prior covalent BTK inhibitor, with BTK C481 mutation [15/20]", "value": 75, "unit": "%"}, {"measurement": "ORR", "setting": "progression on prior covalent BTK inhibitor, without BTK C481 mutation [18/30]", "value": 60, "unit": "%"}]}
